Experimental data reported in patent publication US20210002712A1, “PHOSPHATIDIC ACID SENSOR” (NATIONAL UNIVERSITY CORPORATION CHIBA UNIVERSITY, priority 2019, published 2021).

Key:
[1] = Lipid overlay assay, PA spot; type: binding; conditions: GST-tagged protein 20 nM; 16:0/16:0-glycerolipids, 100 pmol
Description: (§1) FIG. 9. Equimolar amounts (100 pmol) of various lipids were spotted onto nitrocellulose membranes as indicated. Acyl chains of these glycerolipids and sphingolipids are C16:0 (Echelon Biosciences).
(§2) FIGS. 10 and 12. The blots were scanned and quantified using ImageJ software. The PA binding activity (spot intensity) of α-Syn-N was set to 100%. Values are presented as the mean±S.D. of three independent experiments. ***P<0.005 versus PA.
(§3) FIG. 27. Equimolar amounts (500 pmol) of 18:1/18:1-PA, 18:1/18:1-PC, 18:1/18:1-PE, 18:1/18:1-PG), 18:1/18:1-PS, 18:1/18:1-PI and 18:1/18:1-PI(4,5)P2 were spotted onto nitrocellulose membranes as indicated and incubated with purified GST-tagged-α-Syn-N(20 nM). Lipid-bound proteins were detected by an anti-GST antibody.
(§4) FIG. 28. The blots were scanned and quantified using ImageJ software. The PA binding activity (spot intensity) of α-Syn-N was set to 100%. Values are presented as the mean±S.D. of three independent experiments. ***P<0.005 versus 18:1/18:1-PA.
(§5) Three hundred picomoles of the indicated lipids were spotted onto a nitrocellulose membrane. Membrane Lipid Strip was also used. The membranes were subjected to blocking with 1% skim milk in Tris-buffered saline, pH 7.4, for 1 h at room temperature. […] Quantitative densitometry was performed using ImageJ software.

[2] = Liposome cosedimentation assay, PE and C1P liposomes; type: binding; conditions: protein 0.1 μM; liposomes 20 μM
Protocol: (§6) FIG. 7. The purified SUMO-tagged-α-Syn protein (0.1 μM) was incubated with 18:1/18:1-PA, 18:1/18:1-PS, 18:1/18:1-PI(4,5)P2, 18:1/18:1-PE and d18:1/18:1-C1P liposomes (20 μM) and then separated by ultracentrifugation. SDS-PAGE (15%) analysis was performed and separated proteins were detected with silver staining. The position of α-Syn-N is indicated with an arrow head.
(§7) FIG. 8. The amounts of protein in the precipitant were quantified by densitometry using ImageJ software. The PA binding activity of α-Syn-N was set to 100%. Values are presented as the mean±S.D. of three independent experiments. ***P<0.005 versus 18:1/18:1-PA liposome.
(§8) The following lipid mixtures were used: the control liposome: Chol (50 mol %) and 16:0/18:1-PC (50 mol %); and the PA liposome: Chol (50 mol %), 16:0/18:1-PC (35 mol %) and each PA species (15 mol %). The combined dried lipid mixture was resuspended in HEPES buffer. Then, the lipid mixture was vortexed for 1 min. Liposome formation was induced by sonication at 75° C. The purified SUMO-tagged α-Syn and its deletion mutants (2.5 μM) were dissolved in HEPES buffer and incubated with the control or PA-containing liposomes at room temperature for 1 h. […] The supernatant and pellet were analyzed by SDS-PAGE followed by Coomassie Brilliant Blue and silver staining. Quantitative densitometry was performed using ImageJ software. […]

[3] = Liposome cosedimentation assay, PS liposomes; type: binding; conditions: protein 0.1 μM; liposomes 20 μM
Protocol: as §6, §7, §8

EGFP-PLD2 = assay: Colocalization with EGFP-PLD2 in COS-7 cells; type: cell-based
Protocol: FIGS. 21 and 22. […] Representative data from three independent experiments are shown. Scale bars, 20 μm.
(§9) COS-7 cells were maintained in Dulbecco's modified Eagle's medium supplemented with 10% fetal bovine serum, 100 units/ml penicillin, and 100 μg/ml streptomycin at 37° C. in an atmosphere containing 5% CO2. Cells were transiently transfected using PolyFect reagent as described by the manufacturer.
(§10) The cells were then fixed in 4% paraformaldehyde. The coverslips were mounted using Vectashield. […] Images were acquired using FV-10 ASW software.

COS-7 cells = assay: Subcellular localization of the sensor without PA-generating enzyme in COS-7 cells; type: cell-based; conditions: absence of PA-generating enzyme
Protocol: (§11) FIGS. 13 to 16. […] After 24 h of transfection, the cells were fixed and imaged. Representative data from three independent experiments are shown. Scale bars, 20 μm.
(§12) FIG. 29. Either EGFP alone or EGFP-DGKβ was coexpressed with the DsRed monomer alone, DsRed monomer-Spo20p-PABD or DsRed monomer-PDE4A1-PABD in COS-7 cells as indicated. After 24 h of transfection, the cells were fixed and imaged. Representative data from three independent experiments are shown. Scale bars, 20 μm.
as §9, §10

[4] = Liposome cosedimentation assay, PI(4,5)P2 liposomes; type: binding; conditions: protein 0.1 μM; liposomes 20 μM
Protocol: as §6, §7, §8

EGFP-DGKγ = assay: Colocalization with EGFP-DGKγ in PMA-stimulated COS-7 cells; type: cell-based; conditions: 1 μM PMA 30 min
Protocol: FIGS. 19 and 20. […] Representative data from three independent experiments are shown. Scale bars, 20 μm. FIG. 20.
as §9, §10

PIP5K1A = assay: Colocalization with EGFP-PIP5K1A in COS-7 cells; type: cell-based
Protocol: as §12, with “23.” for “29.”, “EGFP-PIP5K1A” for “EGFP-DGKβ”, “with either” for “with”, “monomer α-Syn-N” for “monomer-Spo20p-PABD”, “monomer PLCδ1-PHD” for “monomer-PDE4A1-PABD”
FIG. 24. The localization of EGFP-PIP5K1A, DsRed monomer-α-Syn-N and DsRed monomer-PLCδ1-PHD was quantified using ImageJ software.
as §9, §10

Myr-AcGFP-DGKζ = assay: Colocalization with Myr-AcGFP-DGKζ in COS-7 cells; type: cell-based; conditions: trans Golgi network and plasma membrane
Protocol: FIG. 17. […] After 24 h of transfection, the cells were fixed and imaged. Representative data from three independent experiments are shown. Scale bars, 20 μm.
FIGS. 32 and 33. Either Myr-AcGFP-DGKζ alone or Myr-AcGFP-DGKζ-KD was coexpressed with the DsRed monomer alone or DsRed monomer-Spo20p-PABD in COS-7 cells as indicated. After 24 h of transfection, the cells were fixed and imaged. Representative data from three independent experiments are shown. Scale bars, 20 μm.
as §9, §10

[5] = Liposome cosedimentation assay, other PA molecular species; type: binding; conditions: protein 2.5 μM; PA 150 μM
Protocol: (§13) FIG. 3. The purified SUMO-tagged-α-Syn-N protein (2.5 μM) was incubated with control (PC and Chol alone), 16:0/16:0-PA, 16:0/18:1-PA, 18:1/18:1-PA, or 18:0/18:0-PA liposomes (PA: 150 μM) and then separated by ultracentrifugation. SDS-PAGE (15%) was performed and separated proteins were stained with Coomassie Brilliant Blue. The position of α-Syn-N is indicated with an arrow head.
(§14) FIG. 4. The amounts of protein in the supernatant (S) and precipitant (P) were quantified by densitometry using ImageJ software. Binding activity was calculated as the percentage of the precipitate band intensity compared to the total band intensities. Values are presented as the mean±S.D. of three independent experiments. #P<0.05, ##P<0.01, ###P<0.005 versus the 18:1/18:1-PA-liposome, *P<0.05, ***P<0.005 versus the control liposome.
as §8, with “C.” for “C. The purified SUMO-tagged α-Syn and its deletion mutants (2.5 μM) were dissolved in HEPES buffer and incubated with the control or PA-containing liposomes at room temperature for 1 h.”

[6] = Liposome cosedimentation assay, 18:1/18:1-PA liposomes; type: binding; conditions: for PA-binding activity (18:1/18:1-PA liposomes): 6×His-SUMO-tagged protein 2.5 μM, PA 150 μM
Protocol: FIG. 1. A schematic architecture of α-Syn and its deletion mutants. FIG. 2. The purified SUMO-tagged-α-Syn and its deletion mutant protein (2.5 μM) were incubated with 18:1/18:1-PA or 18:1/18:1-PS liposomes (PA or […]: 150 μM) and then separated by ultracentrifugation. SDS-PAGE (15%) was performed and separated proteins were stained with Coomassie Brilliant Blue. The positions of α-Syn and its mutants are indicated with arrow heads. The amounts of protein in the supernatant (S) and precipitant (P) were quantified by densitometry using ImageJ software. Binding activity was calculated as the percentage of the precipitate band intensity compared to the total band intensities. Values are presented as the mean±S.D. of four independent experiments. **P<0.01 versus the 18:1/18:1-PS liposome.
as §13, §14
FIG. 5. The purified SUMO-tagged-α-Syn protein (0.1 μM) was incubated with 18:1/18:1-PA liposomes of the indicated concentrations (0-20 μM) and then separated by ultracentrifugation. SDS-PAGE (15%) was performed and separated proteins were detected with silver staining. The position of α-Syn-N is indicated with an arrow head.
FIG. 6. The amounts of protein in the precipitant were quantified by densitometry using ImageJ software. Binding activity was calculated as the percentage of the precipitate band intensity compared to the total band intensities (Input). Values are presented as the mean±S.D. of four independent experiments. The Kd was determined using GraphPad Prism 8 (Dissociation-One phase exponential decay).
as §6, §7
The following lipid mixtures were used: the control liposome: Chol (50 mol %) and 16:0/18:1-PC (50 mol %); and the PA liposome: Chol (50 mol %), 16:0/18:1-PC (35 mol %) and each PA species (15 mol %). The combined dried lipid mixture was resuspended in HEPES buffer. Then, the lipid mixture was vortexed for 1 min. Liposome formation was induced by sonication at 75° C. The purified SUMO-tagged α-Syn and its deletion mutants (2.5 μM) were dissolved in HEPES buffer and incubated with the control or PA-containing liposomes at room temperature for 1 h. Then, the samples were centrifuged at 200,000 g at 4° C. for 1 h. The precipitant was dissolved in HEPES buffer. The supernatant and pellet were analyzed by SDS-PAGE followed by Coomassie Brilliant Blue and silver staining. Quantitative densitometry was performed using ImageJ software. Since the lipid forms a bilayer, half of the actual concentration was considered.

EGFP-DGKβ = assay: Colocalization with EGFP-DGKβ in COS-7 cells; type: cell-based; conditions: 24 h after transfection
Protocol: as §11
FIG. 14. […] FIG. 15. EGFP-DGKβ-WT was coexpressed with DsRed monomer-α-Syn-N in COS-7 cells. […] Representative data from three independent experiments are shown. Scale bars, 20 μm.
as §12, §9, §10

[7] = Lipid overlay assay, other lipids; type: binding; conditions: GST-tagged protein 20 nM; 100 pmol lipids
Description: as §1, §2, §3, §4, §5

[8] = Lipid overlay assay, PA versus LPA and C1P; type: binding; conditions: GST-tagged protein 20 nM; 300 pmol lipids
Protocol: FIG. 11. Equimolar amounts (300 pmol) of 18:1/18:1-PA, 18:1-LPA, and d18:1/18:1-C1P were spotted onto nitrocellulose membranes as indicated. The membranes were incubated with purified GST-tagged-α-Syn-N(20 nM). Lipid-bound proteins were detected by an anti-GST antibody.
as §2
Three hundred picomoles of the indicated lipids were spotted onto a nitrocellulose membrane. Membrane Lipid Strip was also used. The membranes were subjected to blocking with 1% skim milk in Tris-buffered saline, pH 7.4, for 1 h at room temperature. After blocking, 10 ml of 3% bovine serum albumin in Tris-buffered saline, pH 7.4, containing purified GST alone or GST-α-Syn-N (final concentration, 20 nM) was added to the membranes. The membranes were then incubated for 1 h at room temperature. Next, the membranes were incubated with an anti-GST antibody, followed by incubation with a peroxidase-conjugated goat anti-rabbit IgG antibody. Finally, lipid-bound proteins were visualized using an ECL Western blotting detection system. Quantitative densitometry was performed using ImageJ software.

| binding to PA spot [1] | binding to PE or C1P liposomes [2] | binding to PS liposomes [3] | binding to PI(4,5)P2 liposomes [4] | binding to 16:0/16:0- and 16:0/18:1-PA liposomes [5] | Kd ([6]; protein 0.1 μM, 18:1/18:1-PA liposomes 0-20 μM, read-out: dissociation constant (Kd) for PA (18:1/18:1-PA)) [µM] | binding to 18:1/18:1-PA liposomes compared with other acidic glycerolipids ([6]; protein 0.1 μM, liposomes 20 μM) | binding to other lipid spots [7] | binding of PA relative to LPA and C1P [8] | Substance | colocalization with EGFP-PLD2 (EGFP-PLD2) | subcellular localization (COS-7 cells) | colocalization with EGFP-DGKγ at the plasma membrane (EGFP-DGKγ) | colocalization with EGFP-PIP5K1A (PIP5K1A) | colocalization with Myr-AcGFP-DGKζ (Myr-AcGFP-DGKζ) | PA-binding activity (18:1/18:1-PA liposomes) [6] | colocalization with EGFP-DGKβ (EGFP-DGKβ) |
| --- | --- | --- | --- | --- | --- | --- | --- | --- | --- | --- | --- | --- | --- | --- | --- | --- |
| most strongly bound | did not substantially interact | no signals were observed | only weak signals were detected | considerably interacted | 6.6 | most strongly bound | only weak or no signals were detected | significantly stronger binding | α-Syn-N: N-terminal region of mouse α-synuclein (Met1-Lys60), SEQ ID NO: 2; used 6×His-SUMO-, GST- or DsRed monomer-tagged | clearly colocalized | broad distribution in the cytoplasm and the nucleus | markedly colocalized | did not codistribute | markedly colocalized | most strongly bound | clearly colocalized |
|  |  |  |  |  |  |  |  |  | α-Syn-NAC-C: NAC and C deletion mutant of α-Syn (Glu61-Ala140), 6×His-SUMO-tagged |  |  |  |  |  | failed to show substantial PA-binding activity |  |
|  |  |  |  |  |  |  |  |  | α-Syn-NAC: non-amyloid-β-component deletion mutant of α-Syn (Glu61-Val95), 6×His-SUMO-tagged |  |  |  |  |  | failed to show substantial PA-binding activity |  |
